Test results as given in ChEMBL document CHEMBL3352542, “Synthesis, biological evaluation and molecular modeling study of 2-(1,3,4-thiadiazolyl-thio and 4-methyl-thiazolyl-thio)-quinazolin-4-ones as a new class of DHFR inhibitors” (Bioorg Med Chem Lett, 2014).
Calls of active or inactive are those of the source. The calls are words filed in the database; no cut-off is given here.

Key:
A498 = test: Growth inhibition of human A498 cells at 10 uM after 48 hrs; type: functional
MDA-MB-231 = test: Growth inhibition of human MDA-MB-231 cells at 10 uM after 48 hrs; type: functional
NCI-H23 = test: Growth inhibition of human NCI-H23 cells at 10 uM after 48 hrs; type: functional
KM12 = test: Growth inhibition of human KM12 cells at 10 uM after 48 hrs; type: functional
OVCAR-5 = test: Growth inhibition of human OVCAR5 cells at 10 uM after 48 hrs; type: functional
NCI-H226 = test: Growth inhibition of human NCI-H226 cells at 10 uM after 48 hrs; type: functional
OVCAR-3 = test: Growth inhibition of human OVCAR3 cells at 10 uM after 48 hrs; type: functional
786-0 = test: Growth inhibition of human 786-0 cells at 10 uM after 48 hrs; type: functional
Staphylococcus aureus [1] = test: Antimicrobial activity against Staphylococcus aureus assessed as inhibition zone at 200 ug/disk after 24 hrs by disc-diffusion method; type: functional; details: read-out: IZ
U-251 = test: Growth inhibition of human U251 cells at 10 uM after 48 hrs; type: functional
Staphylococcus aureus [2] = test: Antimicrobial activity against Staphylococcus aureus assessed as inhibition of visible growth after 24 hrs by disc-diffusion method; type: functional, organism-based
Bacillus subtilis [3] = test: Antimicrobial activity against Bacillus subtilis assessed as inhibition of visible growth after 24 hrs by disc-diffusion method; type: functional, organism-based
UACC-257 = test: Growth inhibition of human UACC257 cells at 10 uM after 48 hrs; type: functional
LOX IMVI = test: Growth inhibition of human LOXIMVI cells at 10 uM after 48 hrs; type: functional
HCT-116 = test: Growth inhibition of human HCT116 cells at 10 uM after 48 hrs; type: functional
PC-3 = test: Growth inhibition of human PC3 cells at 10 uM after 48 hrs; type: functional
HCT-15 = test: Growth inhibition of human HCT15 cells at 10 uM after 48 hrs; type: functional
SW-620 = test: Growth inhibition of human SW620 cells at 10 uM after 48 hrs; type: functional
T47D = test: Growth inhibition of human T47D cells at 10 uM after 48 hrs; type: functional
HCC 2998 = test: Growth inhibition of human HCC2998 cells at 10 uM after 48 hrs; type: functional
Bacillus subtilis [4] = test: Antimicrobial activity against Bacillus subtilis assessed as inhibition zone at 200 ug/disk after 24 hrs by disc-diffusion method; type: functional; details: read-out: IZ
Escherichia coli = test: Antimicrobial activity against Escherichia coli assessed as inhibition zone at 200 ug/disk after 24 hrs by disc-diffusion method; type: functional; details: read-out: IZ
SK-MEL-5 = test: Growth inhibition of human SK-MEL-5 cells at 10 uM after 48 hrs; type: functional
HT-29 = test: Growth inhibition of human HT-29 cells at 10 uM after 48 hrs; type: functional
MDA-MB-468 = test: Growth inhibition of human MDA-MB-468 cells at 10 uM after 48 hrs; type: functional
SF-268 = test: Growth inhibition of human SF268 cells at 10 uM after 48 hrs; type: functional
Malme-3M = test: Growth inhibition of human MALME-3M cells at 10 uM after 48 hrs; type: functional
MOLT-4 = test: Growth inhibition of human MOLT4 cells at 10 uM after 48 hrs; type: functional
SNB-19 = test: Growth inhibition of human SNB19 cells at 10 uM after 48 hrs; type: functional
NCI/ADR-RES = test: Growth inhibition of human NCI-ADR-RES cells at 10 uM after 48 hrs; type: functional
CAKI-1 = test: Growth inhibition of human CAKI-1 cells at 10 uM after 48 hrs; type: functional
RPMI-8226 = test: Growth inhibition of human RPMI8226 cells at 10 uM after 48 hrs; type: functional
Hs-578T = test: Growth inhibition of human Hs 578T cells at 10 uM after 48 hrs; type: functional
CCRF-CEM = test: Growth inhibition of human CCRF-CEM cells at 10 uM after 48 hrs; type: functional
SR = test: Growth inhibition of human SR cells at 10 uM after 48 hrs; type: functional
A549 = test: Growth inhibition of human A549 cells at 10 uM after 48 hrs; type: functional
K562 = test: Growth inhibition of human K562 cells at 10 uM after 48 hrs; type: functional
OVCAR-8 = test: Growth inhibition of human OVCAR8 cells at 10 uM after 48 hrs; type: functional
HOP-92 = test: Growth inhibition of human HOP92 cells at 10 uM after 48 hrs; type: functional
SF-539 = test: Growth inhibition of human SF539 cells at 10 uM after 48 hrs; type: functional
TK-10 = test: Growth inhibition of human TK10 cells at 10 uM after 48 hrs; type: functional
Candida albicans = test: Antimicrobial activity against Candida albicans assessed as inhibition zone at 200 ug/disk after 24 hrs by disc-diffusion method; type: functional; details: read-out: IZ
Dihydrofolate reductase = biological target: T1, Dihydrofolate reductase (Bos taurus, UniProt P00376); test: Inhibition of bovine liver DHFR
T1 sequence (P00376 whole entry): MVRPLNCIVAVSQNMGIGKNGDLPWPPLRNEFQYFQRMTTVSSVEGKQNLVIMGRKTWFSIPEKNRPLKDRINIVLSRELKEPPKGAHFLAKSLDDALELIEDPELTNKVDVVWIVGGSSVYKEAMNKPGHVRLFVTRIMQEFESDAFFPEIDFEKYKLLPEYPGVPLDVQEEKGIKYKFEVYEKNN

NCI-H460 = test: Growth inhibition of human NCI-H460 cells at 10 uM after 48 hrs; type: functional
HL-60(TB) = test: Growth inhibition of human HL-60(TB) cells at 10 uM after 48 hrs; type: functional
BT-549 = test: Growth inhibition of human BT549 cells at 10 uM after 48 hrs; type: functional
RXF 393 = test: Growth inhibition of human RXF393 cells at 10 uM after 48 hrs; type: functional
OVCAR-4 = test: Growth inhibition of human OVCAR4 cells at 10 uM after 48 hrs; type: functional
UO-31 = test: Growth inhibition of human UO31 cells at 10 uM after 48 hrs; type: functional
UACC-62 = test: Growth inhibition of human UACC62 cells at 10 uM after 48 hrs; type: functional
M14 = test: Growth inhibition of human M14 cells at 10 uM after 48 hrs; type: functional
NCI-H522 = test: Growth inhibition of human NCI-H522 cells at 10 uM after 48 hrs; type: functional
SNB-75 = test: Growth inhibition of human SNB75 cells at 10 uM after 48 hrs; type: functional
COLO 205 = test: Growth inhibition of human COLO205 cells at 10 uM after 48 hrs; type: functional
SF-295 = test: Growth inhibition of human SF295 cells at 10 uM after 48 hrs; type: functional
ACHN = test: Growth inhibition of human ACHN cells at 10 uM after 48 hrs; type: functional
Pseudomonas aeruginosa = test: Antimicrobial activity against Pseudomonas aeruginosa assessed as inhibition zone at 200 ug/disk after 24 hrs by disc-diffusion method; type: functional; details: read-out: IZ
MCF7 = test: Growth inhibition of human MCF7 cells at 10 uM after 48 hrs; type: functional
MDA-MB-435 = test: Growth inhibition of human MDA-MB-435 cells at 10 uM after 48 hrs; type: functional
SN12C = test: Growth inhibition of human SN12C cells at 10 uM after 48 hrs; type: functional

**Q.** Which “growth inhibition (GI)” value (A498) does the source give for `Cc1ccc(-n2c(Sc3sc(N)nc3C)nc3ccc(Cl)cc3c2=O)cc1` here?
**A.** inactive

**Q.** And the “growth inhibition (GI)” value (MDA-MB-231)?
**A.** inactive

**Q.** What about the “growth inhibition (GI)” value (NCI-H23) of the same molecule?
**A.** inactive

**Q.** What about the “growth inhibition (GI)” value (KM12) of the same molecule?
**A.** inactive

**Q.** What about the “growth inhibition (GI)” value (OVCAR-5) of the same molecule?
**A.** inactive

**Q.** And the “growth inhibition (GI)” value (NCI-H226)?
**A.** inactive

**Q.** And the “growth inhibition (GI)” value (OVCAR-3)?
**A.** inactive

**Q.** And the “growth inhibition (GI)” value (786-0)?
**A.** inactive

**Q.** And the zone of inhibition at 200 µg/disc (Staphylococcus aureus [1])?
**A.** 18 mm

**Q.** And the “growth inhibition (GI)” value (U-251)?
**A.** inactive

**Q.** And the Activity (Staphylococcus aureus [2])?
**A.** Active

**Q.** What about the Activity (Bacillus subtilis [3]) of the same molecule?
**A.** Active

**Q.** What about the “growth inhibition (GI)” value (UACC-257) of the same molecule?
**A.** inactive

**Q.** What about the “growth inhibition (GI)” value (LOX IMVI) of the same molecule?
**A.** inactive

**Q.** And the “growth inhibition (GI)” value (HCT-116)?
**A.** inactive

**Q.** What about the “growth inhibition (GI)” value (PC-3) of the same molecule?
**A.** inactive

**Q.** And the “growth inhibition (GI)” value (HCT-15)?
**A.** inactive

**Q.** What about the “growth inhibition (GI)” value (SW-620) of the same molecule?
**A.** inactive

**Q.** What about the “growth inhibition (GI)” value (T47D) of the same molecule?
**A.** inactive

**Q.** And the “growth inhibition (GI)” value (HCC 2998)?
**A.** inactive

**Q.** And the zone of inhibition at 200 µg/disc (Bacillus subtilis [4])?
**A.** 16 mm

**Q.** And the zone of inhibition at 200 µg/disc (Escherichia coli)?
**A.** 8 mm

**Q.** What about the “growth inhibition (GI)” value (SK-MEL-5) of the same molecule?
**A.** inactive

**Q.** And the “growth inhibition (GI)” value (HT-29)?
**A.** inactive

**Q.** What about the “growth inhibition (GI)” value (MDA-MB-468) of the same molecule?
**A.** inactive

**Q.** What about the “growth inhibition (GI)” value (SF-268) of the same molecule?
**A.** inactive

**Q.** And the “growth inhibition (GI)” value (Malme-3M)?
**A.** inactive

**Q.** And the “growth inhibition (GI)” value (MOLT-4)?
**A.** inactive

**Q.** What about the “growth inhibition (GI)” value (SNB-19) of the same molecule?
**A.** inactive

**Q.** What about the “growth inhibition (GI)” value (NCI/ADR-RES) of the same molecule?
**A.** inactive

**Q.** And the “growth inhibition (GI)” value (CAKI-1)?
**A.** inactive

**Q.** And the “growth inhibition (GI)” value (RPMI-8226)?
**A.** inactive

**Q.** What about the “growth inhibition (GI)” value (Hs-578T) of the same molecule?
**A.** inactive

**Q.** And the “growth inhibition (GI)” value (CCRF-CEM)?
**A.** inactive

**Q.** What about the “growth inhibition (GI)” value (SR) of the same molecule?
**A.** inactive

**Q.** And the “growth inhibition (GI)” value (A549)?
**A.** inactive

**Q.** And the “growth inhibition (GI)” value (K562)?
**A.** inactive

**Q.** What about the “growth inhibition (GI)” value (OVCAR-8) of the same molecule?
**A.** inactive

**Q.** And the “growth inhibition (GI)” value (HOP-92)?
**A.** inactive

**Q.** And the “growth inhibition (GI)” value (SF-539)?
**A.** inactive

**Q.** And the “growth inhibition (GI)” value (TK-10)?
**A.** inactive

**Q.** And the zone of inhibition at 200 µg/disc (Candida albicans)?
**A.** 8 mm

**Q.** And the IC50 (Dihydrofolate reductase)?
**A.** 5 µM

**Q.** And the “growth inhibition (GI)” value (NCI-H460)?
**A.** inactive

**Q.** And the “growth inhibition (GI)” value (HL-60(TB))?
**A.** inactive

**Q.** What about the “growth inhibition (GI)” value (BT-549) of the same molecule?
**A.** inactive

**Q.** What about the “growth inhibition (GI)” value (RXF 393) of the same molecule?
**A.** inactive

**Q.** What about the “growth inhibition (GI)” value (OVCAR-4) of the same molecule?
**A.** inactive

**Q.** What about the “growth inhibition (GI)” value (UO-31) of the same molecule?
**A.** inactive

**Q.** What about the “growth inhibition (GI)” value (UACC-62) of the same molecule?
**A.** inactive

**Q.** And the “growth inhibition (GI)” value (M14)?
**A.** inactive

**Q.** What about the “growth inhibition (GI)” value (NCI-H522) of the same molecule?
**A.** inactive

**Q.** What about the “growth inhibition (GI)” value (SNB-75) of the same molecule?
**A.** inactive

**Q.** And the “growth inhibition (GI)” value (COLO 205)?
**A.** inactive

**Q.** And the “growth inhibition (GI)” value (SF-295)?
**A.** inactive

**Q.** And the “growth inhibition (GI)” value (ACHN)?
**A.** inactive

**Q.** What about the zone of inhibition at 200 µg/disc (Pseudomonas aeruginosa) of the same molecule?
**A.** 8 mm

**Q.** And the “growth inhibition (GI)” value (MCF7)?
**A.** inactive

**Q.** And the “growth inhibition (GI)” value (MDA-MB-435)?
**A.** inactive

**Q.** What about the “growth inhibition (GI)” value (SN12C) of the same molecule?
**A.** inactive
